Laboratory results reported in ChEMBL document CHEMBL1130685, “Anthelmintic beta-hydroxyketoamides (BKAs)” (1998).

System: Meriones unguiculatus
Experiment: Compound was evaluated for percentage clearance of Haemonchus contortus from jirds at the dose of 68 mg/kg
Type: functional

Row | Structure (SMILES) | Parasite_Clearance [%]
1 | O=C(Nc1ccc(Br)cc1)c1c(O)c2ccccc2oc1=O | 89
2 | O=C(Nc1ccc(Br)cc1)C1=C(O)[C@@H]2[C@H](C1=O)[C@@H]1C=C[C@H]2C1 | 98
3 | CN1C(=O)C(=C(O)Nc2ccc(Br)cc2)C(=O)N(C)C1=O | 100
4 | Cn1c(=O)c(C(=O)Nc2ccc(Br)cc2)c(O)c2ccccc21 | 81
5 | O=C(Nc1ccc(Br)cc1)c1c(O)c2cccnc2oc1=O | 100
6 | O=C(Nc1ccc(Br)cc1)C1=C(O)c2ccccc2C1=O | 100
7 | O=C(Nc1ccc(Br)cc1)C1=C(O)C2C3C=CC(O3)C2C1=O (stereo not given) | 92
8 | Cc1cc(O)c(C(=O)Nc2ccc(Br)cc2)c(=O)o1 | 76
9 | O=C(Nc1ccc(Br)cc1)c1c(O)nc2sc(C(F)(F)F)nn2c1=O | 82

System: Meriones unguiculatus
Experiment: Compound was evaluated for percentage clearance of Haemonchus contortus from jirds at dose of 25 mg/kg
Type: functional

Row | Structure (SMILES) | Parasite_Clearance [%]
10 | CN1C(=O)C(=C(O)Nc2ccc(Br)cc2)C(=O)N(C)C1=O | 81
